Results reported in patent US20240261348A1, “LACTOBACILLUS PLANTARUM-DERIVED VESICLE AND USE THEREOF” (priority 2021, published 2024).

Test system: AMPK (pAMPK) in muscle cells (L6 myotube cells)
Experiment: AMPK activation in muscle cells (pAMPK western blotting)
Type: cell-based
Method: Therefore, an experiment was conducted to evaluate whether Lactobacillus plantarum-derived vesicles (Lp EV) affect cellular aging through AMPK activation in cells. To evaluate AMPK activation according to a concentration of treated Lactobacillus plantarum-derived vesicles in vitro, muscle cells (L6 myotube cells) were treated with the Lactobacillus plantarum-derived vesicles at 0, 0.1, 1, or 10 μg/mL for 1 hour. As a control, insulin (1 μM), which promotes aging and metformin (50 mM), which inhibits aging were used. After treating the cells with the drug, the difference in the amount of pAMPK, which is a key indicator in AMPK signaling, was measured through western blotting. […] To perform BCA quantitative analysis, the 1.5 mL microtube containing 5 μL of the lysed sample supernatant was taken out at room temperature, 20 μL of sterile distilled water was added thereto, and the resulting solution was vortexed and then spun down. […] After reacting in a 37° C. incubator for 30 minutes, absorbance was measured at 562 nm using a SpectraMax M3 microplate reader (Molecular Devices, USA). For western blotting, in the process of tris-glycine SDS-polyacrylamide gel electrophoresis, a 10% gel was prepared, and 50 μg of a protein for each sample was quantified and loaded. […]

Row | Molecule | phosphorylation of AMPK (pAMPK) (metformin 50 mM for 1 hour (FIG. 8)) | phosphorylation of AMPK (pAMPK) (insulin 1 μM for 1 hour (FIG. 8))
1 | CN(C)C(=N)N=C(N)N [metformin] | increased | –
2 | insulin | – | inhibited
